The star is where a group is joined. Palmitoyl = CCCCCCCCCCCCCCCC(=O)*
Columns and labels:
[1] = tested on: normal human keratinocytes (NHK); experiment: Involucrin quantification by immunohistochemistry in NHK; assay type: cell-based; conditions: 5 ppm
Protocol: Normal human keratinocytes (NHK) are grown on wells plate. When subconfluence was reached, cells received various concentrations of the peptides. After few days, evaluation of differentiation is compared to solvent control under microscope and cells are fixed to allow the study of involucrin by immunohistochemistry.
Involucrin is an early marker of keratinocytes differentiation. The below table show the percentage of variation of involucrin vs. Control.

[2] = tested on: extracellular lipases of P. acnes; experiment: Lipase activity of P. acnes (4-MUO probe); assay type: biochemical, Propionibacterium acnes; conditions: vs solvent control, n = 6
Protocol: A culture of P. acnes was carried out. The cells were then separated from the culture medium containing the lipases excreted by P. acnes. The peptide of the invention was added to samples of this cell-free medium and lipase activity was monitored using a fluorescent 4-methylumbelliferyl oleate (4-MUO) probe which is converted by lipases to fluorescent 4-methylumbelliferone, and whose signal has been recorded.

Propionibacterium acnes = Propionibacterium acnes growth inhibition test (time to OD of 1); assay type: cell-based; conditions: control 26 hours
Protocol: 1.4—Propionibacterium acnes Growth Inhibition Test Principle: Suspensions of Propionibacterium acnes of equivalent density are cultured in a suitable medium in the presence (test case) or absence (control case) of the preferred peptide according to the invention, in anaerobic condition, at 37° C. Samples are taken at regular intervals to measure the OD at 600 nm, to follow the growth of the bacterial population over time. The growth curve of each culture can therefore be established.

P. acnes = P. acnes growth curve (time to OD600 nm = 0.5); assay type: cell-based, Propionibacterium acnes; conditions: for Time (in hour) to reach OD600 nm = 0.5: vehicle 42-44 h
Protocol: 1—P. acnes growth curve (same protocol as described above at point 1.4)
P. acnes is thawed and grown over 3 days in M20 media. Then, optical density at 600 nm (OD600) is measured and 2×10^6 CFU*/mL are plated in well plates. P. acnes is then treated with 6 ppm, 9 ppm and 12 ppm of peptides. To follow bacterial cell multiplication, OD600 is measured regularly for about 1 week. […] Statistical evaluations are performed on results using a Student t test. Two independent experiments are performed (N=2).

S. epidermidis = S. epidermidis growth (selectivity test); assay type: cell-based; conditions: 6 ppm and 12 ppm, 48 hours
Protocol: S. epidermidis was inoculated in an appropriate medium and its growth was followed over time. The peptide according to the invention (6 ppm and 12 ppm) was tested on these cells for 48 hours in comparison with the control case (n=6).

[3] = tested on: HaCaT (human keratinocyte line); experiment: ELISA assay of hyaluronic acid on HaCaT culture; assay type: cell-based; conditions: 72 hours of contact
Protocol: This same type of test was carried out on a HaCaT culture (human keratinocyte line), but without the irradiation step, with a contact time of 72 hours between the cells and the peptide of the invention and an ELISA assay of hyaluronic acid on the culture medium.

[4] = tested on: normal human keratinocytes (NHK); experiment: DNA Microarray on NHK culture; assay type: cell-based; conditions: 9 ppm, 24 hours, confluent NHKs
Protocol: 1.2—DNA Microarray-Technology NHK Culture Principle: the peptide according to the invention at 9 ppm is brought into contact for 24 hours with confluent NHKs (versus control case). Then the NHKs layers are rinsed, and the cells are crushed to extract their mRNA. These mRNAs are then converted into DNA sequences which are analyzed after deposition on DNA chips and amplification by a method similar to qRT-PCR (Real-time Quantitative Reverse Transcription Polymerase Chain Reaction). The mRNA variations due to the peptide are compared to the control case (the solvent of the peptide). The results are expressed as an expression ratio between the treated case and the control case. A ratio greater than 2 is considered to be induction of gene expression ([…]).

NHKs exposed to UVB = experiment: ELISA of pro-inflammatory mediators (PGE2 and IL-6) on NHK exposed to UVB; assay type: cell-based, human
Protocol: 1.1—Immuno-Enzymatic Assays (ELISA) on Normal Human Keratinocyte (NHK) Culture Principle: NHKs in culture and at confluence are brought into contact with the peptide of the invention at different concentrations for 24 hours in a medium allowing their survival. Then the cell layers are irradiated with UVB (light stress, intended to mimic an experimental cutaneous micro-inflammation) in a physiological buffer and again brought into contact with the products to be tested for 24 hours. At the end of this incubation, the culture media are assayed by ELISA to evaluate the amounts of pro-inflammatory mediators (PGE2 and IL-6) produced by these cells in response to irradiation. The results are compared to the control. A decrease in the amount of mediators produced will be interpreted as a limitation of damages related to inflammation. An estimate of the cell number is made on the attached layer to reduce the assay results to the number of cells. A study of variances and a Student t test are carried out to judge the significance of the results.

Substance: palmitoyl-lysyl-threonyl-serine-lysyl-serine (Palmitoyl-KTSKS-OH; SMILES CCCCCCCCCCCCCCCC(=O)N[C@@H](CCCCN)C(=O)N[C@H](C(=O)N[C@@H](CO)C(=O)N[C@@H](CCCCN)C(=O)N[C@@H](CO)C(=O)O)[C@@H](C)O) [Pal-KTSKS]
- Involucrin (% var vs. Control) [1]: +177%; p < 0.01
- Lipase activity of P. acnes, Variation (%) ([2]; 6 ppm of peptide): −22%; p < 0.01
- Lipase activity of P. acnes, Variation (%) ([2]; 9 ppm of peptide): −64%; p < 0.01
- Lipase activity of P. acnes, Variation (%) ([2]; 12 ppm of peptide): −88%; p < 0.01
- Growth of P. acnes: time required to reach an OD of 1 (Propionibacterium acnes; 6 ppm of peptide): 54 h
- Growth of P. acnes: time required to reach an OD of 1 (Propionibacterium acnes; 9 ppm of peptide): 103 h
- Growth of P. acnes: time required to reach an OD of 1 (Propionibacterium acnes; 12 ppm of peptide): 135 h
- Delay in P. acnes growth versus vehicle (P. acnes; 6 ppm): +5 h
- Time (in hour) to reach OD600 nm = 0.5 (P. acnes; 6 ppm): 48.8 h
- Delay in P. acnes growth versus vehicle (P. acnes; 9 ppm): +11 h
- Time (in hour) to reach OD600 nm = 0.5 (P. acnes; 9 ppm): 55.0 h
- Delay in P. acnes growth versus vehicle (P. acnes; 12 ppm): +43 h
- Time (in hour) to reach OD600 nm = 0.5 (P. acnes; 12 ppm): 87.3 h
- Growth of S. epidermidis relative to control (S. epidermidis): slight, temporary slowdown in growth
- Secretion of hyaluronic acid, Variation %/non treated cells ([3]; 6 ppm): +33%; p < 0.01
- Secretion of hyaluronic acid, Variation %/non treated cells ([3]; 8 ppm): +42%; p < 0.01
- Secretion of hyaluronic acid, Variation %/non treated cells ([3]; 10 ppm): +62%; p < 0.01
- Secretion of hyaluronic acid, Variation %/non treated cells ([3]; 15 ppm): +107%; p < 0.01
- Expressed gene ABHD5 (1-acylglycerol-3-phosphate O-acyltransferase): variation compared to the control [4]: ×2.14
- Expressed gene ANXA1 (Annexin A1): variation compared to the control [4]: ×3.05
- Expressed gene AQP5 (Aquaporin 5): variation compared to the control [4]: ×3.11
- Expressed gene CALML5 (Calmodulin-like protein-5): variation compared to the control [4]: ×10.73
- Expressed gene CERS3 (Ceramide synthase 3): variation compared to the control [4]: ×2.38
- Expressed gene CGNL1 (Cingulin-like protein-1): variation compared to the control [4]: ×26.40
- Expressed gene CLDN7 (Claudin): variation compared to the control [4]: ×7.24
- Expressed gene CLDN23 (Claudin): variation compared to the control [4]: ×2.69
- Expressed gene CRNN (Cornulin): variation compared to the control [4]: ×258.60
- Expressed gene DEFB1 (Beta-1-defensin): variation compared to the control [4]: ×4.48
- Expressed gene DEFB103B (Human beta defensin-3): variation compared to the control [4]: ×337.87
- Expressed gene DMKN (Dermokin): variation compared to the control [4]: ×3.58
- Expressed gene ELOVL4 (3-keto acyl-CoA synthase): variation compared to the control [4]: ×5.06
- Expressed gene FLG2 (Filaggrine-2): variation compared to the control [4]: ×197
- Expressed gene HMOX1 (Heme Oxygenase-1): variation compared to the control [4]: ×29.27
- Expressed gene IL37 (Interleukin-37): variation compared to the control [4]: ×7.82
- Expressed gene IVL (Involucrin): variation compared to the control [4]: ×8.43
- Expressed gene KLK5 (Kallikrein 5): variation compared to the control [4]: ×2.2
- Expressed gene LCE2C: variation compared to the control [4]: ×37.7
- Expressed gene LCE3A (Late Cornified Envelop Protein): variation compared to the control [4]: ×306.86
- Expressed gene LCE3B: variation compared to the control [4]: ×324.01
- Expressed gene LCE3D: variation compared to the control [4]: ×1454.67
- Expressed gene LOR (Loricrin): variation compared to the control [4]: ×193
- Expressed gene OCLN (Occludin): variation compared to the control [4]: ×8.65
- Expressed gene PADI-1 (Peptidyl Arginin Deaminase): variation compared to the control [4]: ×185.61
- Expressed gene PI3 (Elafin): variation compared to the control [4]: ×7.73
- Expressed gene PRSS8 (Serine protease-8): variation compared to the control [4]: ×2.74
- Expressed gene RNASE7 (RNase 7): variation compared to the control [4]: ×40.85
- Expressed gene S100A7 (Psoriasin): variation compared to the control [4]: ×15.73
- Expressed gene SPINK5 (Serine protease inhibitor Kazal-type 5): variation compared to the control [4]: ×3.77
- Expressed gene SPRR1A (Small Proline Rich Region Protein): variation compared to the control [4]: ×2.00
- Expressed gene SPRR2A: variation compared to the control [4]: ×24.09
- Expressed gene SPRR2B: variation compared to the control [4]: ×451.61
- Expressed gene SPRR2C: variation compared to the control [4]: ×15.35
- Expressed gene SPRR2D: variation compared to the control [4]: ×23.97
- Expressed gene SPRR2E: variation compared to the control [4]: ×12.48
- Expressed gene SPRR2F: variation compared to the control [4]: ×15.29
- Expressed gene SPRR2G: variation compared to the control [4]: ×687.57
- Expressed gene SPRR3: variation compared to the control [4]: ×48.62
- Expressed gene SPRR4: variation compared to the control [4]: ×23.16
- Expressed gene TGM1 (Transglutaminase-1): variation compared to the control [4]: ×4.66
- Expressed gene TGM5 (Transglutaminase-5): variation compared to the control [4]: ×27.1
- Expressed gene TIMP1 (Metallopeptidase inhibitor 1): variation compared to the control [4]: ×3.68
- Expressed gene TIMP2 (Metallopeptidase inhibitor 2): variation compared to the control [4]: ×5.96
- Expressed gene TJP1 (Tight junction protein ZO-1): variation compared to the control [4]: ×2.02
- IL6 secretion, variation compared to the control (NHKs exposed to UVB; 3 ppm): −4% (nsd)
- PGE2 secretion, variation compared to the control (NHKs exposed to UVB; 3 ppm): +1% (nsd)
- IL6 secretion, variation compared to the control (NHKs exposed to UVB; 10 ppm): −33% (p < 0.01)
- PGE2 secretion, variation compared to the control (NHKs exposed to UVB; 10 ppm): −41% (p < 0.01)
- IL6 secretion, variation compared to the control (NHKs exposed to UVB; 15 ppm): −65% (p < 0.01)
- PGE2 secretion, variation compared to the control (NHKs exposed to UVB; 15 ppm): −63% (p < 0.01)

Source: US20230255873A1, “COSMETIC OR DERMATOLOGICAL PEPTIDE-BASED TREATMENT OF THE SKIN AND ITS INTEGUMENTS” (Sederma, priority 2020, published 2023)
